From US9382228B2 (priority 2013, dated 2016)

Key:
osteoclast precursors = experiment: cells; format: cell-based; details: read-out: Osteoclast assay
Method: Osteoclast Tartrate-Resistant Acid Phosphatase Assay
Diluted compound was transferred to a 384-well black clear bottom plate. Two-thousand five hundred osteoclast precursors (Lonza, Walkersville, Md.) were added per well in growth media containing Receptor Activator of Nuclear Factor Kappa-beta ligand (RANKL) and M-CSF (R&D Systems, Minneapolis, Minn.). […] Tartrate-resistant acid phosphatase activity in the supernatant samples was determined using an acid phosphatase assay kit (Sigma, St. Louis, Mo.). Absorbance was measured at 550 nm using a plate reader. Data was analyzed using Prism software (Graphpad, San Diego, Calif.) to calculate IC50 values.

M-NFS-60 cells = experiment: cells; details: 67 h, read-out: M-NFS-60 cell proliferation
Method: M-NFS-6 Cell Proliferation Assay
A serial dilution of test compound was dispensed into a 384-well black clear bottom plate (Corning, Corning, N.Y.). Two thousand five hundred cells were added per well in 50 μL complete growth medium. […] IC50 values were calculated from a series of percent inhibition values determined at a range of inhibitor concentrations using software routines as implemented in the GraphPad Prism software package.

[1] = target: T1, unphosphorylated c-FMS kinase (uFMS, Seq. ID no. 1) (Homo sapiens, UniProt P07333); experiment: biochemical; details: uFMS, enzymatic assay, ATP 500 μM
T1 sequence (P07333 538-972): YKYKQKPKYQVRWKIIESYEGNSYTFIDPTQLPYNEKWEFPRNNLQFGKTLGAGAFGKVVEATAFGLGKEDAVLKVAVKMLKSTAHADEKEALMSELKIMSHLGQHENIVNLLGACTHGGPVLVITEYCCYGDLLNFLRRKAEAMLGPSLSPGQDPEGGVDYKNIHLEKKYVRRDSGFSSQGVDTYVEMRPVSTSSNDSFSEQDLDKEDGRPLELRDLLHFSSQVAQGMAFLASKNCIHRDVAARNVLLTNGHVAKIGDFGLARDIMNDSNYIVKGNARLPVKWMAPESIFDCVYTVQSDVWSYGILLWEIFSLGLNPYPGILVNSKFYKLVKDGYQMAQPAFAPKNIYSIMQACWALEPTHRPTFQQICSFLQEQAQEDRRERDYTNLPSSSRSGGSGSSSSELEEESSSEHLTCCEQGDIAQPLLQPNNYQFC
Method: In this assay, the oxidation of NADH (thus the decrease at A340 nm) was continuously monitored spectrophometrically. The reaction mixture (100 μL) contained FMS (purchased from Millipore) (10 nM), polyE4Y (1 mg/mL), MgCl2 (10 mM), pyruvate kinase (4 units), lactate dehydrogenase (0.7 units), phosphoenol pyruvate (1 mM), NADH (0.28 mM) and ATP (500 μM) in 90 mM Tris buffer containing 0.2% octyl-glucoside and 1% DMSO, pH 7.5. The inhibition reaction was started by mixing serial diluted test compound with the above reaction mixture. The absorption at 340 nm was monitored continuously for 4 hours at 30° C. on Synergy 2 plate reader. The reaction rate was calculated using the 3 to 4 h time frame. Percent inhibition was obtained by comparison of reaction rate with that of a control (i.e. in the absence of test compound). IC50 values were calculated from a series of percent inhibition values determined at a range of inhibitor concentrations using software routines as implemented in the GraphPad Prism software package.

[2] = target: unphosphorylated c-KIT kinase (uKIT, Seq. ID no. 2) (Homo sapiens, UniProt P10721); experiment: biochemical; details: uKIT, enzymatic assay, ATP 2000 μM
unphosphorylated c-KIT kinase (uKIT, Seq. ID no. 2), sequence (P10721 with tags, fused parts or gaps): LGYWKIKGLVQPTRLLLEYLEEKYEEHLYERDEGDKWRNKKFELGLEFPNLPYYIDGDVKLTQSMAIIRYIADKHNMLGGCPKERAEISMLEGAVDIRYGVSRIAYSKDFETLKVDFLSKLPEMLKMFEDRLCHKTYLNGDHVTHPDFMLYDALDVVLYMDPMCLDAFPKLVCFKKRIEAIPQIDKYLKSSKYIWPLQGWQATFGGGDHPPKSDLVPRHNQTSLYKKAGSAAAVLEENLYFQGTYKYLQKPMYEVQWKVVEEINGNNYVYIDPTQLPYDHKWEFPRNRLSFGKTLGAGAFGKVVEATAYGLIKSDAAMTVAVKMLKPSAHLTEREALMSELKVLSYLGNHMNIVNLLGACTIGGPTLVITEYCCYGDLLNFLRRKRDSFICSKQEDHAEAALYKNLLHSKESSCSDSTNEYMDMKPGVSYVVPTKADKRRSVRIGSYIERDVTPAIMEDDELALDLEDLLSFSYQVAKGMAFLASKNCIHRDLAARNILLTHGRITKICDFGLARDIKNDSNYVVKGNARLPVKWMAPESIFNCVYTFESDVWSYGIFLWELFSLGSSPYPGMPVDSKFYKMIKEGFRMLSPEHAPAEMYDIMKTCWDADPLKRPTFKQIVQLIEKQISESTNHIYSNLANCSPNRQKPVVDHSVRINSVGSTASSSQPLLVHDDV
Method: uKit kinase (Seq. ID No. 2) Assay
In this assay, the oxidation of NADH (thus the decrease at A340 nm) was continuously monitored spectrophometrically. […] The inhibition reaction was started by mixing serial diluted test compound with the above reaction mixture. The absorption at 340 nm was monitored continuously for 4 hours at 30° C. on Synergy 2 plate reader (BioTech).

[3] = target: unphosphorylated PDGFRβ kinase (uPDGFRβ, Seq. ID No. 3) (Homo sapiens, UniProt P09619); experiment: biochemical; details: uPDGFRb, enzymatic assay, ATP 500 μM
unphosphorylated PDGFRβ kinase (uPDGFRβ, Seq. ID No. 3), sequence (P09619 557-1106): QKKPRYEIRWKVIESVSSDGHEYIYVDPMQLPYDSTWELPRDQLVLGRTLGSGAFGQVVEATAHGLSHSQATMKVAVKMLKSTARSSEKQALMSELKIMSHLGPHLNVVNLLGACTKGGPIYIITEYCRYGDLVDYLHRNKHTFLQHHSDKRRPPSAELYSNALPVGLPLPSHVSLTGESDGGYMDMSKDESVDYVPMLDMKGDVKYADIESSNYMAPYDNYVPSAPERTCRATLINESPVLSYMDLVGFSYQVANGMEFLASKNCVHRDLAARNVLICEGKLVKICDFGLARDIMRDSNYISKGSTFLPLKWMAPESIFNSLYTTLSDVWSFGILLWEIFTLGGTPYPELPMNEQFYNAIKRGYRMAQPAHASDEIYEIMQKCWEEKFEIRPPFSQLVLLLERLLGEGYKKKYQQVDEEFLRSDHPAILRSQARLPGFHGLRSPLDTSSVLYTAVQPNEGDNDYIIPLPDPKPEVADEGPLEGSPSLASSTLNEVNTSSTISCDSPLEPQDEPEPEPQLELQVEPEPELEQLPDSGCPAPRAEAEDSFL
Method: Unphosphorylated PDGFRβ (uPDGFRβ) Kinase (Seq. ID No. 3) Assay
In this assay, the oxidation of NADH (thus the decrease at A340 nm) was continuously monitored spectrophometrically. […] The inhibition reaction was started by mixing serial diluted test compound with the above reaction mixture. The absorption at 340 nm was monitored continuously for 4 h at 30° C. on a Polarstar Optima or Synergy 2 plate reader. The reaction rate was calculated using the 1.5 to 2.5 h time frame. Percent inhibition was obtained by comparison of reaction rate with that of a control (i.e. with no test compound). IC50 values were calculated from a series of percent inhibition values determined at a range of inhibitor concentrations using software routines as implemented in the GraphPad Prism software package.

| Structure (SMILES) | IC50 (osteoclast precursors) [nM] | IC50 [1] [nM] | IC50 [2] [nM] | IC50 [3] [nM] | IC50 (M-NFS-60 cells) [nM] |
| --- | --- | --- | --- | --- | --- |
| Cc1nc(NC(=O)NC(=O)C2(C(F)(F)F)CCC2)ccc1Oc1ccnc(-c2cnn(C)c2)c1 [Example 102, N-((6-methyl-5-((2-(1-methyl-1H-pyrazol-4-yl)pyridin-4-yl)oxy)pyridin-2-yl)carbamoyl)-1-(trifluoromethyl)cyclobutanecarboxamide] | 10 to 100 | < 10 | 100 to 1000 | 100 to 1000 | < 10 |
| CNc1ccc(-c2cc(Oc3ccc(NC(=O)NC(=O)C(C)(C)C)nc3)ccn2)cn1 [Example 105, N-((5-((6′-(methylamino)-[2,3′-bipyridin]-4-yl)oxy)pyridin-2-yl)carbamoyl)pivalamide] | < 10 | < 10 | 100 to 1000 | 100 to 1000 | 10 to 100 |
| Cn1cc(-c2cc(Oc3ccc(NC(=O)NC(=O)C4(C)CCC4)nc3)ccn2)cn1 [Example 87, 1-methyl-N-((5-((2-(1-methyl-1H-pyrazol-4-yl)pyridin-4-yl)oxy)pyridin-2-yl)carbamoyl)cyclobutanecarboxamide] | < 10 | < 10 | 100 to 1000 | 100 to 1000 | < 10 |
| CCC(C)(C)C(=O)NC(=O)Nc1ccc(Oc2ccnc(-c3cnn(C)c3)c2)cn1 [Example 63, 2,2-dimethyl-N-((5-((2-(1-methyl-1H-pyrazol-4-yl)pyridin-4-yl)oxy)pyridin-2-yl)carbamoyl)butanamide] | < 10 | < 10 | 100 to 1000 | 100 to 1000 | < 10 |
| CC(C)(C)C(=O)NC(=O)Nc1ccc(Oc2ccnc(-c3ccnc(C(F)(F)F)c3)c2)cn1 [Example 95, N-((5-((2′-(trifluoromethyl)-[2,4′-bipyridin]-4-yl)oxy)pyridin-2-yl)carbamoyl)pivalamide] | 10 to 100 | 10 to 100 | > 1000 | > 1000 | 100 to 1000 |
| CCC(=O)NC(=O)Nc1ccc(Oc2ccnc(-c3ccc(C)nc3)c2)cn1 [Example 108, N-((5-((6′-methyl-[2,3′-bipyridin]-4-yl)oxy)pyridin-2-yl)carbamoyl)propionamide] | 10 to 100 | 10 to 100 | > 1000 | > 1000 | > 1000 |
| Cc1cc(-c2cc(Oc3ccc(NC(=O)NC(=O)C4CCOC4)nc3)ccn2)ccn1 (centres unmarked) [Example 85, N-((5-((2′-methyl-[2,4′-bipyridin]-4-yl)oxy)pyridin-2-yl)carbamoyl)tetrahydrofuran-3-carboxamide] | 10 to 100 | 10 to 100 | > 1000 | > 1000 | 100 to 1000 |
| Cn1cc(-c2cc(Oc3ccc(NC(=O)NC(=O)C4(C(F)(F)F)CCC4)nc3)ccn2)cn1 [Example 101, N-((5-((2-(1-methyl-1H-pyrazol-4-yl)pyridin-4-yl)oxy)pyridin-2-yl)carbamoyl)-1-(trifluoromethyl)cyclobutanecarboxamide] | 10 to 100 | < 10 | 100 to 1000 | < 10 | < 10 |
| Cc1ccc(-c2cc(Oc3ccc(NC(=O)NC(=O)C4CCCC4)nc3C)ccn2)cn1 [Example 100, N-((6-methyl-5-((6′-methyl-[2,3′-bipyridin]-4-yl)oxy)pyridin-2-yl)carbamoyl)cyclopentanecarboxamide] | < 10 | < 10 | 10 to 100 | > 1000 | 10 to 100 |

Further lines, with some results ahead:

| IC50 (osteoclast precursors) [nM] | IC50 [1] [nM] | IC50 [2] [nM] | IC50 [3] [nM] | Structure (SMILES) | IC50 (M-NFS-60 cells) [nM] |
| --- | --- | --- | --- | --- | --- |
| 10 to 100 | < 10 | 10 to 100 | 10 to 100 | Cc1cc(NC(=O)NC(=O)C(C)(C)C)nc(C)c1Oc1ccnc(-c2cnn(C)c2)c1 [Example 116, N-((4,6-dimethyl-5-((2-(1-methyl-1H-pyrazol-4-yl)pyridin-4-yl)oxy)pyridin-2-yl)carbamoyl)pivalamide] | 10 to 100 |
| 10 to 100 | < 10 | 10 to 100 | 100 to 1000 | Cc1cc(NC(=O)NC(=O)C2CCOCC2)nc(C)c1Oc1ccnc(-c2cnn(C)c2)c1 [Example 117, N-((4,6-dimethyl-5-((2-(1-methyl-1H-pyrazol-4-yl)pyridin-4-yl)oxy)pyridin-2-yl)carbamoyl)tetrahydro-2H-pyran-4-carboxamide] | 10 to 100 |
| 10 to 100 | 10 to 100 | > 1000 | > 1000 | Cc1cn(-c2cc(Oc3ccc(NC(=O)NC(=O)C(C)C)nc3C)ccn2)cn1 [Example 134, N-((6-methyl-5-((2-(4-methyl-1H-imidazol-1-yl)pyridin-4-yl)oxy)pyridin-2-yl)carbamoyl)isobutyramide] | 100 to 1000 |
| 10 to 100 | < 10 | 10 to 100 | 100 to 1000 | COC1(C(=O)NC(=O)Nc2cc(C)c(Oc3ccnc(-n4cnc(C)c4)c3)cn2)CCCC1 [Example 162, 1-methoxy-N-((4-methyl-5-((2-(4-methyl-1H-imidazol-1-yl)pyridin-4-yl)oxy)pyridin-2-yl)carbamoyl)cyclopentanecarboxamide] | < 10 |
| 10 to 100 | < 10 | 10 to 100 | > 1000 | Cc1cn(-c2cc(Oc3cnc(NC(=O)NC(=O)C(C)(C)C)cc3C)ccn2)cn1 [Example 148, N-((4-methyl-5-((2-(4-methyl-1H-imidazol-1-yl)pyridin-4-yl)oxy)pyridin-2-yl)carbamoyl)pivalamide] | < 10 |
| 10 to 100 | 10 to 100 | 100 to 1000 | > 1000 | Cc1ncc(-c2cc(Oc3ccc(NC(=O)NC(=O)C4CCOCC4)nc3)ccn2)s1 [Example 156, N-((5-((2-(2-methylthiazol-5-yl)pyridin-4-yl)oxy)pyridin-2-yl)carbamoyl)tetrahydro-2H-pyran-4-carboxamide] | 100 to 1000 |
| 10 to 100 | < 10 | 100 to 1000 | 100 to 1000 | COC1(C(=O)NC(=O)Nc2ccc(Oc3ccnc(-c4cc(C)no4)c3)c(C)n2)CCCC1 [Example 166, 1-methoxy-N-((6-methyl-5-((2-(3-methylisoxazol-5-yl)pyridin-4-yl)oxy)pyridin-2-yl)carbamoyl)cyclopentanecarboxamide] | 10 to 100 |
| 10 to 100 | 100 to 1000 | > 1000 | > 1000 | COC(C)(C)C(=O)NC(=O)Nc1ccc(Oc2ccnc(-c3cnc(C)n3C)c2)cn1 [Example 139, N-((5-((2-(1,2-dimethyl-1H-imidazol-5-yl)pyridin-4-yl)oxy)pyridin-2-yl)carbamoyl)-2-methoxy-2-methylpropanamide] | 100 to 1000 |
| 10 to 100 | < 10 | 10 to 100 | 100 to 1000 | Cc1nc(NC(=O)NC(=O)C(C)(C)C)ccc1Oc1ccnc(-c2ccc(N3CCN(C)CC3)cc2)c1 [Example 118, N-((6-methyl-5-((2-(4-(4-methylpiperazin-1-yl)phenyl)pyridin-4-yl)oxy)pyridin-2-yl)carbamoyl)pivalamide] | 10 to 100 |
| 100 to 1000 | 100 to 1000 | > 1000 | > 1000 | Cc1cn(-c2cc(Oc3ccc(NC(=O)NC(=O)C4CCOC4)nc3C)ccn2)cn1 (centres unmarked) [Example 136, N-((6-methyl-5-((2-(4-methyl-1H-imidazol-1-yl)pyridin-4-yl)oxy)pyridin-2-yl)carbamoyl)tetrahydrofuran-3-carboxamide] | 100 to 1000 |
